Patent US20140045807A2, “THE USE OF 3-METHOXY-PREGNENOLONE FOR THE PREPARATION OF A DRUG FOR TREATING A TRAUMATIC BRAIN INJURY” (priority 2004, published 2014)
Values after ≈ are worked out from the molar mass of the structure shown.

Legend:
[1] = target: T1, human progesterone receptor(PR) (Homo sapiens, UniProt P06401); test: Test of progesterone receptor agonist activity (luciferase transactivation, HEK293T); format: cell-based; conditions: increasing amounts, 24 hours
T1 construct: expressed in transfected cells; host or cells: HEK293T
T1 sequence (P06401 1-933): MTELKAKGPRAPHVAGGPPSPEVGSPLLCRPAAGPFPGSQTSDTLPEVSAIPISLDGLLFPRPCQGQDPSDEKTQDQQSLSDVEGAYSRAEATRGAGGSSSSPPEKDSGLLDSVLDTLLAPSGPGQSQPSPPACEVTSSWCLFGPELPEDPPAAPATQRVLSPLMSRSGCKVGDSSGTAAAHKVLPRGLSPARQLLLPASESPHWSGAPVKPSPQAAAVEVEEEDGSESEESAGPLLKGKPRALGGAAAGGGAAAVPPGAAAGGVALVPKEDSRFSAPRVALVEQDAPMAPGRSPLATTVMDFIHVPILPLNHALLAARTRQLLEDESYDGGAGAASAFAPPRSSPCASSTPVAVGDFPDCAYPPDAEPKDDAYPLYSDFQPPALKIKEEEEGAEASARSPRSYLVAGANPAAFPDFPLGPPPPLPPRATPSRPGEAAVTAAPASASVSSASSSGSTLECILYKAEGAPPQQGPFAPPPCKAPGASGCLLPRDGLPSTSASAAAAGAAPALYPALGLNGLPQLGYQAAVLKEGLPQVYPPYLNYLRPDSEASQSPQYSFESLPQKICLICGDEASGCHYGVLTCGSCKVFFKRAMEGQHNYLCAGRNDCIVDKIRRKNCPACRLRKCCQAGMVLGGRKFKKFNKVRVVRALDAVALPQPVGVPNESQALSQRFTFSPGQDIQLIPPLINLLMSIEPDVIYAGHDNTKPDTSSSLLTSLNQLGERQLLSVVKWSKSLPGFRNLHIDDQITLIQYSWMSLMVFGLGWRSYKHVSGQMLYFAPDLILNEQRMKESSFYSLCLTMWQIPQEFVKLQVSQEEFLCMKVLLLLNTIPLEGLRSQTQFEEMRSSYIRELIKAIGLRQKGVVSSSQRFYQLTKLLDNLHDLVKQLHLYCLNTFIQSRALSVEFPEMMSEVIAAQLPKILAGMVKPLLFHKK
Procedure: The main experimental setting used is the following: HEK293T cells were transiently transfected, using calcium phosphate precipitation technology, with expression vectors pSG5hPR (which permits expression of human progesterone receptor(PR)), pFC31-luc (contains the luciferase gene under the control of the MMTV promoter, which is in turn activated by binding of a progestin to progesterone receptor) and pcbetagal (which permits expression of betagalactosidase), and cultured during 24 hours with increasing amounts of various compositions: • 1. […] Test of progesterone receptor […] activity: transfected cells were cultured with progesterone (1 nM) and increasing amounts of RU486 (a well-known progesterone receptor antagonist) or 3-methoxy-pregnenolone. • With this setting, a compound with progesterone receptor antagonist activity competes with progesterone for the occupation of progesterone receptor and results in a progressive loss of transactivation activity when the amount of this compound is increased compared to progesterone.

[2] = Neurosteroids and 3-methoxy-PREG levels in plasma and hippocampus; conditions: rat
[3] = Solubility limit; format: physicochemical; conditions: read-out: solubility limits
[4] = In vivo toxicity, daily injection for one month; set-up: species or system rat; conditions: rats, daily injection for one month of 48 mg/kg
[5] = tested on: MAP2; test: Western blot of MAP2 in cortex and hippocampus after CCI; format: in vivo, rat; conditions: 20 mg/kg, first injection 2 h post-trauma, day 35, injured and non-injured cortex and hippocampus
Procedure: FIG. 19: MAP-2 expression, 35 days after TBI, in the left-uninjured and right-injured hemispheres (A: cortex and B: hippocampus) of CCI-injured animals, receiving either vehicle (D0) or MAP4343 (D1: 10 mg/kg and D2: 20 mg/kg), 2 h after injury.
(§1) Samples were analyzed by Western-blot at day 35 post-trauma (D35) to evaluate the effects of MAP4343 on: MAP2 (the target of MAP4343 and a modulator of microtubule function), the post-synaptic markers PSD95 and spinophilin, the pre-synaptic marker synaptophysin, and the axonal growth/integrity marker GAP43.
(§2) Western blot was performed on cortex and hippocampus of TBI-injured animals receiving the first injection of MAP4343 (at 10 mg/kg or 20 mg/kg) or vehicle (sesame oil) 2 h after injury.
(§3) The expression level of various neuronal brain markers of plasticity was measured at day 35 post-trauma by western-blots in the cortex and hippocampus of left uninjured and right injured cerebral hemispheres of CCI traumatized animals receiving either vehicle (sesame oil, CCI-D0) or 3-methoxy-PREG (MAP4343) at 10 mg/kg (CCI-D1) or 20 mg/kg (CCI-D2), with first MAP4343 injection 2 h post-trauma.

[6] = target: purified tubulin and MAP2 (Homo sapiens, UniProt P11137); test: MAP2-induced polymerization of microtubules in vitro (optical density at 345 nm); format: biochemical
Procedure: Purified MAP2 and tubulin are mixed in the presence of GTP at 4° C. in a spectrophotometer cuvette. Polymerization is induced by heating at 37° C. and is followed by the increase in optical density (OD) which indicates the quantity of polymers formed.
This in vitro test measures the effect of molecules on the MAP2-induced polymerization of microtubules. This polymerization occurs when MAP2 proteins and tubulin are mixed at adequate concentrations in the presence of GTP. It is accompanied by an increase in optical density measured at 345 nm for 15 to 30 minutes with a UNICON spectrophotometer thermostated at 37° C. (FIG. 1).
Activity is measured by the increase in optical density at 345 nm of a mixture of purified tubulin and MAP2, incubated at 37° C. in the presence of GTP.

[7] = tested on: 80 different CNS neurotransmitters receptors; test: Screen for in vitro affinity to 80 different CNS neurotransmitters receptors; format: binding
Description: MAP4343 has been screened for in vitro affinity to 80 different CNS neurotransmitters receptors using various validated binding assays.

[8] = tested on: synaptophysin; test: Western blot of synaptophysin in cortex and hippocampus after CCI; format: in vivo, rat; conditions: 20 mg/kg, first injection 2 h post-trauma, day 35, injured hippocampus
Procedure: FIG. 22: Synaptophysin expression, 35 days after TBI, in the left-uninjured and right-injured hemispheres (A: cortex and B: hippocampus) of CCI-injured animals, receiving either vehicle (D0) or MAP4343 (D1: 10 mg/kg and D2: 20 mg/kg), 2 h after injury.
as §1, §2, §3

[9] = 3 h following injection, 10 mg/kg subcutaneously
[10] = 40 μM, compared to control kinetics with solvent alone

Sequence of purified tubulin and MAP2 (P11137 whole entry): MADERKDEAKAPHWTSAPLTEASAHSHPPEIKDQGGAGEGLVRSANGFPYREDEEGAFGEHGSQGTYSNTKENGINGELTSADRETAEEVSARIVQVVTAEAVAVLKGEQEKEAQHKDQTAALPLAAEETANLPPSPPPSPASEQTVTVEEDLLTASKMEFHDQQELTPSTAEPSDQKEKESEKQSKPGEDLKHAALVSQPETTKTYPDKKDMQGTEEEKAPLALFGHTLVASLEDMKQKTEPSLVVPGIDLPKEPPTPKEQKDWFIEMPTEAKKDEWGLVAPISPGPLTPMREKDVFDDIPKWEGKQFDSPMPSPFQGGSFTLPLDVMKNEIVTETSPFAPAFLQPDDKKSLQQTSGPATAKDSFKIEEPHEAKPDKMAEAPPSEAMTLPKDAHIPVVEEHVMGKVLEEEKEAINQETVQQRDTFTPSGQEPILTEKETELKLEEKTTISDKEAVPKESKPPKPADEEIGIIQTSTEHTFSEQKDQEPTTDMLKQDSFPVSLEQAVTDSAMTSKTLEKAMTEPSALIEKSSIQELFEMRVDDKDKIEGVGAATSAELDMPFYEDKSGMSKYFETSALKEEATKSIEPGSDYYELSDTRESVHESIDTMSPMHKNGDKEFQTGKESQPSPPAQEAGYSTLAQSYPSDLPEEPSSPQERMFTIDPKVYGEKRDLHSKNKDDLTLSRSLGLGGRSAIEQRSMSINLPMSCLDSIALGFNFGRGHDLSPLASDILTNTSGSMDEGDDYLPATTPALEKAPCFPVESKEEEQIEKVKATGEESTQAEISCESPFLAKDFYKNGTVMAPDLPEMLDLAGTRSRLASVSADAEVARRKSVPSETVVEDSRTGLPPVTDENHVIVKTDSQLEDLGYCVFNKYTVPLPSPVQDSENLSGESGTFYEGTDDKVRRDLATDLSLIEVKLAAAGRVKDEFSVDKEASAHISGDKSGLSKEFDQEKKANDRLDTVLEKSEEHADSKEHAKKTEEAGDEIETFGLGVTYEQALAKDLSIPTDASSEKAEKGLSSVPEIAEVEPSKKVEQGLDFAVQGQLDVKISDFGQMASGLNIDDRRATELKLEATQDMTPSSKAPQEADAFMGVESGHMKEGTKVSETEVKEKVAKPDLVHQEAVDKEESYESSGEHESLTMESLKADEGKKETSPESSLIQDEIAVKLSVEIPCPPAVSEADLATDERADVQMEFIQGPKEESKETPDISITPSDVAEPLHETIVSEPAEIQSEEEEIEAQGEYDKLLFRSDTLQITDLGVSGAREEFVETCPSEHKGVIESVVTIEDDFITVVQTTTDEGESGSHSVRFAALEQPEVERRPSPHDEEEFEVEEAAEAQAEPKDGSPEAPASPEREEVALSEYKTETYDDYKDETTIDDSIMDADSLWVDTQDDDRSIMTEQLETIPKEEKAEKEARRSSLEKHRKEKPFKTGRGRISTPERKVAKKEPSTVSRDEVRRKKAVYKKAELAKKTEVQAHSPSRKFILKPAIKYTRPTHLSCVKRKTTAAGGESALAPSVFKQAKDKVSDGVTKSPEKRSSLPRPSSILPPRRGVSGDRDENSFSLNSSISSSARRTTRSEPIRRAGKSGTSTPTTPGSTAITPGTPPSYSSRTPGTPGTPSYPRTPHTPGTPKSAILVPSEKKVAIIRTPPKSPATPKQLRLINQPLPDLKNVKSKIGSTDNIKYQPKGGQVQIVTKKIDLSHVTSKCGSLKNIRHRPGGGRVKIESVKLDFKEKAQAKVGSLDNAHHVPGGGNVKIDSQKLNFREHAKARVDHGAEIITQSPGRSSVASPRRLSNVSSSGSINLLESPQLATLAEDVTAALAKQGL

CO[C@H]1CC[C@@]2(C)C(=CC[C@H]3[C@@H]4CC[C@H](C(C)=O)[C@@]4(C)CC[C@@H]32)C1 [3-methoxy-PREG, 3β-methoxy-pregna-5-ene-20-one]
progesterone receptor agonist (transactivation) activity [1]: does not have progesterone receptor agonist activity | conversion back to PREG or metabolism to PROG ([2]; 3 h after 10 mg/kg subcutaneously): not converted back to PREG or metabolized to PROG | concentration of the drug in hippocampus [2, 9]: 73.3 ± 14.68 ng/g | concentration of the drug in plasma [2, 9]: 21.11 ± 5.04 ng/mL | solubility [3]: ~50 µM (≈ 16.5 µg/mL) | average weight and behavior [4]: affected neither average weight nor behavior | MAP-2 expression [5]: strong increase | Lag time of microtubule polymerization [6, 10]: decreased | polymerization rate and quantity of microtubules [6, 10]: clearly increase | effect on microtubule polymerization ([6]; MAP2 and tubulin with GTP, 37° C.): activates microtubule polymerization | Activity (increase in optical density at 345 nm) ([6]; purified tubulin and MAP2, 37° C., GTP): 100% of PREG | affinity for any tested receptor [7]: no significant affinity | Synaptophysin expression [8]: increase in Synaptophysin expression
